According to US20090081639A1, “Assay for sensitivity to chemotherapeutic agents” (priority 2007, published 2009):
≈ marks a conversion by molar mass, not a printed value.

Columns and labels:
Type in all cases: cell-based, human
[1] = system: THP-1 Acute myeloid leukemia cells; assay: Chemotherapeutic Sensitivity Assay (Gus and/or LacZ output), batch infection with GLV-1h68, Example 3; conditions: for MIC VV / LacZ/infection inhibition: THP-1, GLV-1h68 MOI 10, 24 hours, visual; for MIC VV: β-glucuronidase (Gus) output; for LacZ/infection inhibition: β-galactosidase output
[2] = system: THP-1 cells; assay: MTT cell viability assay, Example 3; conditions: for MIC MTT / concentration at which cell death / inhibition was observed in the MTT assay: THP-1, approximately 48 hours; for MIC MTT: visual; for concentration at which cell death / inhibition was observed in the MTT assay: text of Example 3
[3] = system: HL-60 cells
[4] = system: THP-1 cells
[5] = system: KG1a cells
[6] = system: HL-60 cells; assay: Cell viability and growth assay (MTT reduction), Example 2; conditions: HL-60, approximately 48 hours, visual assessment
[7] = system: THP-1 cells; assay: as above; conditions: THP-1, approximately 48 hours, visual assessment
[8] = system: KG1a cells; assay: as above; conditions: approximately 48 hours, visual assessment
[9] = THP-1, maximal concentration used
[10] = THP-1, next lowest concentration
[11] = THP-1, GLV-1h68, 24 hours, text of Example 3

O=c1[nH]cc(F)c(=O)[nH]1 [5-Fluorouracil, 5-fluorouracil]
MIC VV [1]: 1.9 µM (≈ 0.247 µg/mL) | concentration giving very pale blue/pink color in the β-glucuronidase assay, indicating partial cell killing ([1]; THP-1, highest drug concentration tested): 1.9 µM | MIC MTT [2]: 1.9 µM (≈ 0.247 µg/mL) | MTT assay observation [2, 9]: cell death | MTT assay observation [2, 10]: only slight cell death

Nc1ccn([C@@H]2O[C@H](CO)[C@@H](O)[C@@H]2O)c(=O)n1 [Ara-C, cytosine arabinoside]
β-galactosidase expression (P7.5k early/late promoter) in presence of Ara-C ([3]; HL-60, GLV-1h68 MOI 10, 1 nM-1 mM Ara-C, 24 hours, X-gal, visual assessment): equally robust in the presence or absence of Ara-C | effect on β-glucuronidase expression (P11k late promoter) ([3]; HL-60, GLV-1h68 MOI 10, 1 nM-1 mM Ara-C, 24 hours, X-gluc, visual assessment): dose-dependent inhibition | concentration at which β-glucuronidase expression was undetectable by eye (complete abrogation of viral late transcription) ([3]; HL-60, GLV-1h68 MOI 10, 24 hours, printed as 1 mM to 1 μM): ≥ 1 µM | β-galactosidase expression (P7.5k early/late promoter) in presence of Ara-C ([4]; THP-1, GLV-1h68 MOI 10, 1 nM-1 mM Ara-C, 24 hours, X-gal, visual assessment): equally robust in the presence or absence of Ara-C | effect on β-glucuronidase expression (P11k late promoter) ([4]; THP-1, GLV-1h68 MOI 10, 1 nM-1 mM Ara-C, 24 hours, X-gluc, visual assessment): dose-dependent inhibition | concentration at which β-glucuronidase expression was undetectable by eye (complete abrogation of viral late transcription) ([4]; THP-1, GLV-1h68 MOI 10, 24 hours, printed as 1 mM to 1 μM): ≥ 1 µM | β-galactosidase expression (P7.5k early/late promoter) in presence of Ara-C ([5]; GLV-1h68 MOI 10, 1 nM-1 mM Ara-C, 24 hours, X-gal, visual assessment): equally robust in the presence or absence of Ara-C | effect on β-glucuronidase expression (P11k late promoter) ([5]; GLV-1h68 MOI 10, 1 nM-1 mM Ara-C, 24 hours, X-gluc, visual assessment): dose-dependent inhibition | concentration at which late viral transcription, as measured by β-glucuronidase expression, was abrogated ([5]; GLV-1h68 MOI 10, 24 hours, 'as low as'): ≥ 100 nM | concentration at which reduction of MTT was abrogated [6]: ≥ 1 µM | concentration at which reduction of MTT was abrogated [7]: ≥ 1 µM | concentration at which reduction of MTT was abrogated [8]: ≥ 100 nM | concentration at which inhibition of β-glucuronidase expression was observed [1, 11]: ≥ 1 µM | LacZ/infection inhibition [1]: >1000 µM | MIC VV [1]: 1 µM (≈ 0.243 µg/mL) | β-galactosidase expression ([1]; THP-1, all concentrations less than the maximal concentration of the drug tested): unaffected | concentration at which limited inhibition of β-galactosidase expression was seen ([1]; THP-1, highest concentration of the drug tested): 1 mM | concentration at which cell death / inhibition was observed in the MTT assay [2]: ≥ 1 µM | MIC MTT [2]: 1 µM (≈ 0.243 µg/mL)

N.N.[Cl][Pt][Cl] [Cisplatin, cisplatin]
MIC MTT [2]: 33 µM | MIC MTT, qualifier in words ([2]; THP-1, line below the MIC MTT value): partial | MTT assay observation [2, 9]: cell death | MTT assay observation [2, 10]: only slight cell death

O=P1(N(CCCl)CCCl)NCCCO1 (stereo not drawn) [Cyclophosphamide, cyclophosphamide]
concentration at which β-galactosidase expression was inhibited ([1]; THP-1, Example 3): above 100 μM | concentration at which inhibition of β-glucuronidase expression was observed [1, 11]: above 100 μM | MIC VV [1]: >100 µM | concentration at which cell death / inhibition was observed in the MTT assay [2]: above 100 μM | MIC MTT [2]: >100 µM

COc1cccc2c1C(=O)c1c(O)c3c(c(O)c1C2=O)C[C@@](O)(C(C)=O)C[C@@H]3O[C@H]1C[C@H](N)[C@H](O)[C@H](C)O1 [Daunorubicin, daunorubicin]
concentration at which some inhibition of β-galactosidase expression was seen ([1]; THP-1, Example 3): greater than 100 nM | concentration at which dose-dependent inhibition of β-glucuronidase expression starts [1, 11]: ≥ 10 nM | LacZ/infection inhibition [1]: >0.1 µM | MIC VV [1]: 0.01 µM (≈ 0.00528 µg/mL) | concentration at which cell death / inhibition was observed in the MTT assay [2]: ≥ 10 µM | MIC MTT [2]: 0.01 µM (≈ 0.00528 µg/mL)

CC(=O)O[C@@]12CO[C@@H]1C[C@H](O)[C@@]1(C)C(=O)[C@H](O)C3=C(C)[C@@H](OC(=O)[C@H](O)[C@@H](NC(=O)OC(C)(C)C)c4ccccc4)C[C@@](O)([C@@H](OC(=O)c4ccccc4)[C@H]21)C3(C)C [Docetaxel, docetaxel]
concentration at which β-galactosidase expression was inhibited ([1]; THP-1, Example 3): ≥ 46 µM | concentration at which inhibition of β-glucuronidase expression was observed [1, 11]: 460 µM | LacZ/infection inhibition [1]: >46 µM | MIC VV [1]: 460 µM (≈ 372 µg/mL) | concentration at which cell death / inhibition was observed in the MTT assay [2]: 46 µM | MIC MTT [2]: 46 µM (≈ 37.2 µg/mL)

COc1cc([C@@H]2c3cc4c(cc3[C@@H](O[C@@H]3O[C@@H]5CO[C@@H](C)O[C@H]5[C@H](O)[C@H]3O)[C@H]3COC(=O)[C@H]23)OCO4)cc(OC)c1O [Etopocide, etoposide]
LacZ/infection inhibition [1]: >50 µM | MIC VV [1]: 5 µM (≈ 2.94 µg/mL) | MIC MTT [2]: 5 µM (≈ 2.94 µg/mL)
